Our source for the melting point values is a melting point compilation (Tetko et al.; mined from patent text by program, amines drawn as free bases though some values may be those of a salt).

Some results are limits rather than exact numbers.

On to `Cc1c([N+](=O)[O-])c(=O)n(C)c(=O)n1C`, for which the melting point (commonly the temperature of the solid-liquid transition) is 152 °C. `O=C(O)CCCCCCCn1cc(-c2ccccc2)c(-c2ccccc2)nc1=O`: the melting point lay in the range of 121 to 123 °C.

`CC(=O)NC[C@H]1CN(c2ccc(C3CCOCC3)c(F)c2)C(=O)O1` displayed a melting point of 191 to 192 °C.

Turning to `CCC1CCC(Oc2cc(F)cc(C(=O)Nc3ccc(OCc4ccncc4)c4ccccc34)c2)CC1` (centres undefined), the melting point lay in the range of 93 to 95 °C. In the case of `COc1ccc(C(N)=O)c(N)c1`, the melting point lay within 152 to 156 °C.

The compound `CC(C=CC1=C(C)C(=O)CC1(C)C)=CC=O` displayed a melting point of 91 to 93 °C. In the case of `Cc1cc(COc2nn3c(-c4ccccc4F)nnc3cc2C2CCC2)no1` it was 150 °C; in that of `O=S1(=O)N=CN(C2CC2)c2cc(Br)ccc21`, 268 to 271 °C; in that of `CC(=O)Nc1c(C(=O)c2cccc(C#N)c2)[nH]c2cc(Cl)ccc12`, 185 to 187 °C.

Consider `O=C(O)C1CCN(c2ncc(NS(=O)(=O)c3ccc(Br)cc3)c(NCc3ccccc3)n2)CC1`, for which the melting point fell in the range of 136 to 138 °C.

The compound `C=CCO[C@H]1[C@H](C)OC(=O)[C@@H](NC(=O)c2nccc(OC)c2OCc2ccccc2)COC(=O)[C@@H]1Cc1ccccc1` displayed a melting point of 55 to 57 °C. In the case of `COc1ccc(N)c(CCc2cc(OC)ccc2N)c1` it was 69 to 71 °C; in that of `COc1ccc(C=CC(=O)c2c(OC)cc(OC)cc2OC(C)=O)cc1`, 105 to 107 °C; in that of `CC(C)(C)c1cc(C(=O)c2ccoc2)cc2c1OCC2(C)C`, 120 to 121 °C. In the case of `CC(C)Cc1ccc(C(C)C(=O)OC2OC(=O)c3ccccc32)cc1` (centres undefined), the melting point was in the range of 62 to 65 °C.

`COC(=O)C[C@H]1[C@H](NC(=O)OC(C)(C)C)CCN1C(=O)OCc1ccccc1` (relative stereo) showed a melting point of 73 to 74 °C. In the case of `CCCC(NS(N)(=O)=O)C(=O)OC` (centres undefined) it was 63 to 64 °C; in that of `O=c1[nH]nc(-c2ccc(Cl)cc2)n1Cc1ccccc1`, 208 to 210 °C; in that of `C=C1CCN([C@H](C)[C@](O)(Cn2cncn2)c2ccc(F)cc2F)CC1`, 86 to 87 °C. The result for `CCOP(=O)(CSCCOn1cnc2c(N)ncnc21)OCC` reads 93 to 95 °C. For the compound `CCNC(=O)C1=C([Si](C)(C)C)S(=O)(=O)c2ccccc21`, the melting point fell in the range of 135 to 148 °C. The result for `N#Cc1ccccc1OC(=O)CCC1CCN(C(=N)N)CC1` reads 160 to 162 °C. In the case of `O=C1CC(c2ccccc2)C(c2ccccc2)=NN1C(=O)Nc1ccc(C(F)(F)F)cc1` (centres undefined) it was 164 to 166 °C; in that of `CC(=O)Nc1ccc(Sc2c(NCC3CC3)cc(C(=O)O)cc2S(N)(=O)=O)cc1`, 200 to 204 °C; in that of `CCOc1nc(N)c2ncn(C3C=CCCC3)c2n1` (centres undefined), 67 to 72 °C.

In the case of `O=C1CC(c2cccs2)CN1` (centres undefined), the melting point was 75 to 76.5 °C. The result for `CC(=O)CCC1(C(N)=O)c2ccccc2-c2ccccc21` reads 125 to 128 °C. In the case of `CCOC(=O)c1c(-c2ccccc2)c2c3ccccc3ccn2c1C` it was 119 to 121 °C; in that of `Cc1oncc1C(=O)N1CCC(O)CC1`, 70.5 to 72.5 °C.

On to `O=C(NC1CCCCC1)c1ccc(-c2cnc(-c3ccc(NC(=O)c4ccccn4)cc3)[nH]2)cc1`, for which the melting point lay in the range of 250 to 252 °C. The result for `FC(F)(F)c1cccc(-c2cc(C(F)(F)F)n3ncc(-c4ccncc4)c3n2)c1` reads 241 °C; that for `CC(C)[C@H](OCc1c(F)cccc1F)[C@H]1[C@H]([N+](=O)[O-])[C@H](c2ccccc2)N[C@@H]1C(=O)NCC(=O)O`, 80 to 81 °C.

`O=C(O)[C@H]1[C@H](CS)N(Cc2ccccc2)C(=O)N1Cc1ccccc1`: the melting point lay within 159 to 160 °C.

As for `CCCCCCCCOC(=O)C=Cc1ccc(N(C)C)cc1`, the melting point was in the range of 48 to 49.5 °C. Consider `CCOC(=O)c1sc(SC(C)C)c2c1CCC(Br)C2=O` (centres undefined), for which the melting point lay within 107 to 108 °C.

Consider `O=C1NC(=O)c2c1c(-c1ccccc1)cc1c2c2cc(O)ccc2n1CCCBr`, for which the melting point was in the range of 280 to 282 °C. The result for `Cc1nc(-n2ccccc2=O)sc1C(=O)NCc1ccccc1` reads 180 to 182 °C.

In the case of `N#CCc1ccc([N+](=O)[O-])c2[nH]ncc12`, the melting point was 198 to 200 °C. In the case of `COc1cc2c(cc1OC)CN(c1c(C)c(C)c3c(c1C)C(c1ccc(C(C)C)cc1)C(C)(C)O3)C2` (centres undefined) it was 153 to 155 °C. As to `COCCOc1cc2ncc(C#N)c(Nc3cc(OC)c(Cl)cc3Cl)c2cc1OCCN1CCOCC1`, the melting point fell in the range of 158 to 159 °C. The result for `Nc1nc2[nH]c3ccccc3c2c(=O)[nH]1` reads more than 340 °C. In turn, `O=[N+]([O-])c1cc2nc(O)c(O)nc2c2[nH]nnc12` registered a melting point of more than 300 °C. In the case of `Cc1c(N2CCC(n3cccc3)CC2)c(F)cn2c(=O)c(C(=O)O)cc(C3CC3)c12` it was 268 to 269 °C; in that of `O=C(c1ccco1)c1cc([N+](=O)[O-])ccc1Cl`, 93 to 96 °C. The result for `COc1ccc(N2CCN(C(=O)NCCN(C)C)CC2)cc1` reads 79 to 82 °C. In the case of `Cc1ccc2ncnc(N3CCc4ccc(Cl)cc43)c2c1` it was 138 to 141 °C; in that of `Cc1cccc2c(-c3ccc(Cl)cc3)noc12`, 88 to 90 °C. As for `CCCCCCCC(=O)c1c(C(=O)CCCCCCC)c(-c2ccccc2)n(-c2ccc(C)cc2)c1-c1ccccc1`, the melting point is 51 to 53 °C. The result for `Nc1cccc(S(=O)(=O)NC(=O)C(F)(F)F)c1` reads 106 to 108 °C. In the case of `CSC(=S)OCc1cn(-c2ccc(N3CCOCC3)c(F)c2)nn1` it was 118 °C. The compound `CSc1nn2c(N(C)C)cc(C)nc2c1S(=O)(=O)c1ccc2ccccc2c1` came in with a melting point of more than 230 °C. In the case of `Cc1nc(-c2ccc(Cl)cc2)c2nc(-c3ccccc3)cc-2[nH]1` it was 281 to 283 °C; in that of `Cn1cncc1C(O)(c1ccc(Cl)cc1)c1ccc2c(c1)C(c1cccc(Cl)c1)OCC(=S)N2` (centres undefined), more than 300 °C; in that of `O=c1[nH]c2sccc2c(=O)n1CCN1CCN(c2ccccc2Cl)CC1`, 216 to 217 °C. In the case of `CC(=O)N1CCC(c2nc(-c3ccncc3)c(-c3ccc(F)cc3)[nH]2)CC1` it was 235 to 236 °C; in that of `CCCCN1CCC(C(=O)O)(S(=O)(=O)c2ccc(OCCC(C)C)cc2)CC1`, 188 °C. Turning to `NC(=O)Cn1c(-c2ccc(Cl)cc2)nc2cccnc21`, the melting point was 270 to 271 °C. In the case of `COc1cc(O)nc(C2CC2)n1` it was 186 °C. The result for `Cc1cccc(NC(=O)N(C)Cc2cccc3c2CN(C2CCC(=O)NC2=O)C3=O)c1` (centres undefined) reads 208 to 210 °C; that for `CCCOc1ccccc1C=C1Oc2ccc(C(=O)O)cc2C1=O`, 228 to 229 °C. The result for `C=CCc1c(Cl)nc(NC=O)nc1Cl` reads 85 to 86 °C. `Cc1cc(C#N)cnc1Oc1c(Cl)cc(NC(=O)NC(=O)c2c(Cl)cccc2Cl)cc1Cl` came in with a melting point of 245 to 246 °C. In the case of `O=C1CN=C(c2ccccc2Cl)c2cc(I)sc2N1` it was 229 to 231 °C. The result for `CCCn1nc2c(N)nc3ccccc3c2c1CCCc1ccn(Cc2ccccc2)c1` reads 138 to 140 °C. In the case of `CCC(OC(=O)C1CC1)c1ccc(Cl)c2nc3n(c12)CCCN3c1ccc(OC)cc1Cl` (centres undefined) it was 130 to 132 °C; in that of `Cc1cc(C)c2ccc(N3C(=O)c4nccnc4C3=O)nc2n1`, 250 °C; in that of `O=C(O)CN1C(=O)C(NC(CCc2ccccc2)C(=O)O)CCc2ccccc21` (centres undefined), 256 to 259 °C.

Turning to `O=C(O)C1CSC(c2cc([N+](=O)[O-])ccc2OCCO[N+](=O)[O-])N1` (centres undefined), the melting point lay in the range of 99 to 101 °C. `CC(=O)NCc1cccc(Nc2nccc(-c3sc(-c4ncc(C(F)(F)F)cc4Cl)nc3C)n2)c1`: the melting point fell in the range of 217 to 218 °C.

In turn, `COc1ccc(C(O)(Cc2ccncc2)c2ccccc2)cc1OC1CCCC1` (centres undefined) yielded a melting point of 148 to 149 °C. In the case of `O=C(/C=C/c1c[nH]c2ccccc12)c1ccccn1` it was 141 to 145 °C. Compound `O=C(Nc1ccc(O)cc1)c1ccc(OC2CCCCO2)cc1` (centres undefined) came in with a melting point of 173 to 174 °C. The result for `Cn1c(=O)cc(CC(=O)O)c2cc(C#N)ccc21` reads 238 °C; that for `CCCOc1c(OC)cc(C=O)cc1S(=O)(=O)CCO`, 111 to 112 °C; that for `O=c1oc2ccccc2c(O)c1[N+](=O)[O-]`, 174 °C. In the case of `COC(=O)CCc1ccc(C(=O)CCl)cc1` it was 90 °C; in that of `CC(C)(C)OC(=O)N1CCCC[C@@H]1C(=O)c1ccc(Br)cc1`, 124 to 125 °C. The result for `CCOC(=O)NCCc1ccccc1` reads 47 to 48 °C; that for `C=CCOc1ccc2c(c1)c(-c1cc3cccnc3n1S(=O)(=O)c1ccc(C)cc1)cn2C`, 257 to 259 °C; that for `NS(=O)(=O)c1ccc(CCN2C(=O)c3ccccc3C2c2ccccc2)cc1` (centres undefined), 218 °C. For the compound `Cc1cc(C)n(-c2ncc(Cl)c(NC3CCCCC3)n2)n1`, the melting point was in the range of 90 to 99 °C. In the case of `N#Cc1cccnc1N1CCN(CC(=O)Nc2cc(F)cc(C(F)(F)F)c2)CC1` it was 108 to 110 °C; in that of `c1ccc2c(c1)-c1ccccc1C2CN1CCCCC1`, 118 to 119 °C. As for `Cc1oc(=O)oc1COC(=O)c1oc2cccc(O)c2c1C`, the melting point is 168 to 170 °C. `CC(C)(C)OC(=O)c1cc([N+](=O)[O-])cc([N+](=O)[O-])c1N(CCO)CCCl` returned a melting point of 106 to 107 °C. The result for `Cc1noc(-c2ccccc2NC(=O)OC2CCNCC2)n1` reads 141 to 142 °C; that for `COc1cc(OC)c([N+](=O)[O-])c(C(=O)NC2CCN(C(c3ccccc3)c3ccccc3)CC2)c1`, 148 to 150 °C; that for `Cc1cc(Nc2cncc(Nc3ccc(Cl)c(OCCN(C)C)c3)n2)n[nH]1`, 145 to 147 °C. `CN(Cc1cc2c(=O)c(C(=O)NCc3ccc(Cl)cc3)cn(C)c2s1)C[C@@H](O)c1ccco1` displayed a melting point of 159 to 162 °C.
